Patent publication US20230233674A1 (priority 2022, published 2023)

Test system: Influenza A/Hong Kong/2369/2009 (H1N1)
Conditions: mouse, in vivo

Structure (SMILES): CCOC(=O)C1=C[C@@H](OC(CC)CC)[C@H](NC(C)=O)[C@@H](N)C1 [Oseltamivir]
- mean peak weight loss: −32%
- mice that succumbed to the disease: 90%
- treatment effect: no significant effect
